PubChem BioAssay (NCI)
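Cells were grown in 96-well plates and exposed to each compound for 48 hours at five concentrations; endpoints were interpolated linearly between bracketing concentrations, or set to the highest concentration if not reached. TGI is the concentration that stops growth completely.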 Where a SMILES comes first, the peptide text is derived from it. The star is where a group is joined. Boc = CC(C)(C)OC(=O)*

How the values were obtained:
Test in all cases: DTP human tumour cell line panel, 48 h
CCRF-CEM leukemia = tested on: CCRF-CEM leukemia
LOX IMVI melanoma = tested on: LOX IMVI melanoma
MDA-MB-435 = tested on: MDA-MB-435
A549 NSCLC = tested on: A549 NSCLC
HCC-2998 colon = tested on: HCC-2998 colon
MOLT-4 leukemia = tested on: MOLT-4 leukemia
BT-549 breast = tested on: BT-549 breast
RPMI-8226 leukemia = tested on: RPMI-8226 leukemia
NCI-H460 lung = tested on: NCI-H460 lung
SN12C renal = tested on: SN12C renal
SF-295 CNS = tested on: SF-295 CNS
NCI-H226 lung = tested on: NCI-H226 lung
SK-MEL-5 melanoma = tested on: SK-MEL-5 melanoma
SW-620 colon = tested on: SW-620 colon
UACC-257 melanoma = tested on: UACC-257 melanoma
PC-3 prostate = tested on: PC-3 prostate
MCF7 breast = tested on: MCF7 breast
HCT-15 colon = tested on: HCT-15 colon
HCT-116 colon = tested on: HCT-116 colon
HOP-62 NSCLC = tested on: HOP-62 NSCLC

Row | SMILES | TGI (CCRF-CEM leukemia) | TGI (LOX IMVI melanoma) | TGI (MDA-MB-435) | TGI (A549 NSCLC) | TGI (HCC-2998 colon) | TGI (MOLT-4 leukemia) | TGI (BT-549 breast) | TGI (RPMI-8226 leukemia) | TGI (NCI-H460 lung) | TGI (SN12C renal) | TGI (SF-295 CNS) | TGI (NCI-H226 lung) | TGI (SK-MEL-5 melanoma) | TGI (SW-620 colon) | TGI (UACC-257 melanoma) | TGI (PC-3 prostate) | TGI (MCF7 breast) | TGI (HCT-15 colon) | TGI (HCT-116 colon) | TGI (HOP-62 NSCLC)
1 | COc1cc(/C=C2/C(=O)N(C(=O)c3ccccc3O)N=C2C)cc(OC)c1OC | > 100 µM | > 100 µM | > 100 µM | > 100 µM | > 87.8 µM | > 100 µM | > 100 µM | > 100 µM | > 100 µM | > 91.2 µM | > 100 µM | > 100 µM | 33.6 µM | > 100 µM | > 100 µM | > 100 µM | 34.9 µM | > 100 µM | > 29 µM | –
2 | CCN1CC2=C(NC(=S)NC2c2ccc(Cl)cc2)/C(=C/c2ccc(Cl)cc2)C1 (centres undefined) | 87.7 µM | > 100 µM | > 100 µM | > 100 µM | > 100 µM | 79.2 µM | > 100 µM | 90.9 µM | 45.8 µM | – | > 100 µM | > 100 µM | > 100 µM | > 100 µM | > 100 µM | > 100 µM | > 100 µM | > 100 µM | > 100 µM | > 100 µM
3 | CC1=C2C(=O)NN=C2CCN1c1ccc(Br)cc1 | 8.26 µM | > 100 µM | > 100 µM | > 100 µM | – | > 100 µM | 75.1 µM | – | > 100 µM | > 100 µM | > 100 µM | > 100 µM | > 100 µM | > 100 µM | > 100 µM | > 100 µM | > 100 µM | > 100 µM | > 100 µM | > 100 µM
4 | COc1cc(O)c(/C=N/N=C(\N)NO)c(OC)c1 | > 10 µM | > 10 µM | > 10 µM | > 10 µM | > 10 µM | – | > 10 µM | > 10 µM | > 10 µM | > 10 µM | > 10 µM | > 10 µM | > 10 µM | > 10 µM | > 10 µM | > 10 µM | > 10 µM | > 10 µM | > 10 µM | > 10 µM
5 | CCN(CC)CCc1c2c(nc3ccccc13)C(=O)c1cccnc1C2=O | 5.72 µM | 2.31 µM | 4.99 µM | 8.65 µM | 7.55 µM | – | 7.56 µM | 6.43 µM | – | 5.92 µM | 5.41 µM | 18.2 µM | 1.34 µM | 12.7 µM | 2.91 µM | 18.6 µM | 1.51 µM | 1.29 µM | 3.53 µM | 11.8 µM
6 | O=C(NNC(=S)Nc1ccc(Cl)cc1)c1cc(-c2ccccc2)nc2ccccc12 | 6.91 µM | – | 11.4 µM | 21.3 µM | 11.5 µM | 27.7 µM | 19.2 µM | 48 µM | 25.6 µM | 21.4 µM | 9.22 µM | 28.9 µM | 16.4 µM | 18.4 µM | 19.5 µM | 15.1 µM | 17.3 µM | 14.9 µM | 13.5 µM | 19.6 µM
7 | Nc1ccc2nc(-c3ccccn3)c(-c3ccccn3)nc2c1 | > 100 µM | > 100 µM | > 100 µM | > 100 µM | > 100 µM | > 100 µM | > 100 µM | > 100 µM | > 100 µM | > 100 µM | > 100 µM | > 100 µM | > 100 µM | > 100 µM | > 100 µM | > 100 µM | > 100 µM | > 100 µM | > 100 µM | –
8 | OCC1CCCCCCCCCCC12SCCCS2 (centres undefined) | > 100 µM | > 100 µM | > 100 µM | > 100 µM | – | > 100 µM | > 100 µM | > 100 µM | > 100 µM | – | – | > 100 µM | > 100 µM | > 100 µM | – | > 100 µM | > 100 µM | > 100 µM | > 100 µM | > 100 µM
9 | O=C(CCCCCCCCC(=O)NN1C(=O)/C(=C\c2ccc(O)c(O)c2)SC1c1ccc(Cl)cc1)NN1C(=O)/C(=C\c2ccc(O)c(O)c2)SC1c1ccc(Cl)cc1 (centres undefined) | – | 57.6 µM | > 100 µM | > 76.8 µM | > 100 µM | 15.3 µM | > 100 µM | > 31.6 µM | > 100 µM | > 100 µM | 48.1 µM | > 100 µM | > 100 µM | > 100 µM | > 100 µM | > 100 µM | > 100 µM | > 100 µM | > 100 µM | 31.5 µM
10 | COC(=O)CNC(=O)C(Cc1ccccc1)NC(=O)C(CCSC)NC(=O)C(Cc1ccc(O)cc1)NC(=O)OC(C)(C)C (centres undefined) (Boc-YMFG-OMe; configuration not given here) | – | 32.7 µM | > 100 µM | > 100 µM | 64.1 µM | 38.9 µM | > 100 µM | 50.2 µM | > 100 µM | > 100 µM | > 100 µM | > 100 µM | > 100 µM | > 100 µM | 38.2 µM | > 100 µM | > 100 µM | > 100 µM | > 100 µM | > 100 µM
11 | Cc1nc(-c2ccc([N+](=O)[O-])cc2)cn2c1nc1ccccc12 | > 100 µM | > 100 µM | > 100 µM | > 100 µM | – | > 100 µM | > 100 µM | > 100 µM | > 100 µM | > 100 µM | > 100 µM | > 100 µM | – | > 100 µM | > 100 µM | > 100 µM | > 100 µM | > 100 µM | > 100 µM | > 100 µM
12 | COc1ccc(N2C(=O)C3c4[nH]c5ccc(OCc6ccccc6)cc5c4C4CCC(C(C)(C)C)CC4C3C2=O)cc1 (centres undefined) | – | > 100 µM | > 100 µM | > 100 µM | > 100 µM | > 100 µM | > 100 µM | > 100 µM | > 100 µM | > 100 µM | > 100 µM | > 100 µM | > 100 µM | > 100 µM | > 100 µM | > 100 µM | > 100 µM | > 100 µM | > 100 µM | > 100 µM
13 | C=C(C)C12CC(COC(=O)c3ccccc3)C34OC5(OC1C3C1OC1(CO)C(O)C1(O)C(OC(=O)c3ccccc3)C(C)C(C(C)CCCCCCC5O)C14)O2 (centres undefined) | > 100 µM | > 100 µM | > 79.3 µM | – | > 64.8 µM | – | > 100 µM | > 75.8 µM | > 100 µM | > 100 µM | > 100 µM | > 100 µM | > 100 µM | – | > 100 µM | > 100 µM | > 100 µM | > 100 µM | > 100 µM | –
14 | c1ccc2c(c1)OC(N1CCCC1)c1cnc(N3CCCC3)nc1-2 (centres undefined) | 67.3 µM | > 100 µM | > 100 µM | > 100 µM | – | 70.5 µM | 60.9 µM | 45.8 µM | > 100 µM | > 100 µM | 82.1 µM | > 100 µM | – | > 100 µM | 40 µM | > 100 µM | 52.9 µM | > 100 µM | > 100 µM | > 100 µM
15 | Cc1nc2c(sc(=S)n2-c2ccccc2)c2nc3ncccc3n12 | > 100 µM | > 100 µM | > 100 µM | > 100 µM | > 100 µM | > 100 µM | > 100 µM | > 100 µM | > 100 µM | > 100 µM | > 100 µM | – | > 100 µM | > 100 µM | > 100 µM | > 100 µM | > 100 µM | > 100 µM | > 100 µM | 90.3 µM
16 | COc1ccc(-c2cc(-c3ccco3)c(C#N)c(=S)n2C2OC(COC(C)=O)C(OC(C)=O)C(OC(C)=O)C2OC(C)=O)cc1 (centres undefined) | – | 15.1 µM | 28.2 µM | 24.5 µM | 48.4 µM | > 100 µM | 8.23 µM | 22.8 µM | 52 µM | 24 µM | 4.65 µM | 16.5 µM | 22.8 µM | 93.2 µM | – | 16.5 µM | > 100 µM | > 100 µM | 22.8 µM | 8.88 µM
17 | OCCCCCNc1c2ccccc2nc2ccccc12 | > 61.7 µM | 4.7 µM | 8.5 µM | > 29.7 µM | 3.36 µM | > 63.3 µM | 25.3 µM | 33.2 µM | 3.5 µM | 9.34 µM | 10.5 µM | – | 3.95 µM | 15.9 µM | 4.77 µM | 7.2 µM | 6.11 µM | 13.9 µM | 21.1 µM | 6.68 µM
18 | O=C(/C=C/c1ccc(O)c([N+](=O)[O-])c1)CC(=O)/C=C/c1ccc(O)c([N+](=O)[O-])c1 | > 100 µM | 27.5 µM | > 100 µM | > 100 µM | – | – | > 100 µM | 34.5 µM | > 100 µM | > 100 µM | > 100 µM | > 100 µM | > 100 µM | > 100 µM | > 100 µM | > 100 µM | > 100 µM | > 100 µM | > 100 µM | > 100 µM
19 | O=C(CN1c2ccccc2Sc2ccccc21)N1CCNCC1 | > 100 µM | > 100 µM | > 100 µM | > 100 µM | – | > 100 µM | > 100 µM | > 100 µM | > 100 µM | > 100 µM | > 100 µM | > 100 µM | > 100 µM | > 100 µM | > 100 µM | > 100 µM | > 100 µM | > 100 µM | > 100 µM | > 100 µM
